In patent US8436036B2, “Diaryl ethers” (Janssen R&D Ireland, priority 2009, dated 2013):

Tests used:
Cytotoxicity (Huh-7) = assay type: cell-based; conditions: human, Huh-7 cells
Description: The in vitro antiviral activity against HCV of the compounds of formula I can be tested in a cellular HCV replicon system based on Lohmann et al. (1999) Science 285:110-113, with the further modifications described by Krieger et al. (2001) Journal of Virology 75: 4614-4624 (incorporated herein by reference), which is further exemplified in the examples section. This model, while not a complete infection model for HCV, is widely accepted as the most robust and efficient model of autonomous HCV RNA replication currently available. It will be appreciated that it is important to distinguish between compounds that specifically interfere with HCV functions from those that exert cytotoxic or cytostatic effects in the HCV replicon model, and as a consequence cause a decrease in HCV RNA or linked reporter enzyme concentration. Assays are known in the field for the evaluation of cellular cytotoxicity based for example on the activity of mitochondrial enzymes using fluorogenic redox dyes such as resazurin. Furthermore, cellular counter screens exist for the evaluation of non-selective inhibition of linked reporter gene activity, such as firefly luciferase. Appropriate cell types can be equipped by stable transfection with a luciferase reporter gene whose expression is dependent on a constitutively active gene promoter, and such cells can be used as a counter-screen to eliminate non-selective inhibitors.

HCV replicon = HCV replicon assay (Huh-Luc cells, luciferase read-out); assay type: cell-based, HCV type Ib; conditions: Hepatitis C virus, 72 h, three days incubation, luciferase activity
Description: The compounds of formula (I) were examined for inhibitory activity in the HCV replicon. This cellular assay is based on a bicistronic expression construct, as described by Lohmann et al. (1999) Science vol. 285 pp. 110-113 with modifications described by Krieger et al. (2001) Journal of Virology 75: 4614-4624, in a multi-target screening strategy.
In essence, the method was as follows:
The assay utilized the stably transfected cell line Huh-7 luc/neo (hereafter referred to as Huh-Luc). This cell line harbors an RNA encoding a bicistronic expression construct comprising the wild type NS3-NS5B regions of HCV type Ib translated from an Internal Ribosome Entry Site (IRES) from encephalomyocarditis virus (EMCV), preceded by a reporter portion (FfL-luciferase), and a selectable marker portion (neo^R, neomycine phosphotransferase). The construct is flanked by 5′ and 3′ NTRs (non-translated regions) from HCV type Ib. Continued culture of the replicon cells in the presence of G418 (neo^R) is dependent on the replication of the HCV RNA. The stably transfected replicon cells that express HCV RNA, which replicates autonomously and to high levels, encoding inter alia luciferase, were used for screening the antiviral compounds.
The replicon cells were plated in 384 well plates in the presence of the test and control compounds which were added in various concentrations. Following an incubation of three days, HCV replication was measured by assaying luciferase activity (using standard luciferase assay substrates and reagents and a Perkin Elmer ViewLux™ ultraHTS microplate imager). Replicon cells in the control cultures have high luciferase expression in the absence of any inhibitor. The inhibitory activity of the compound on luciferase activity was monitored on the Huh-Luc cells, enabling a dose-response curve for each test compound. EC50 values were then calculated, which represent the amount of compound required to decrease the level of detected luciferase activity by 50%, or more specifically, to reduce the ability of the genetically linked HCV replicon RNA to replicate.

| Compound | CC50 (Cytotoxicity (Huh-7)) [µM] | EC50 (HCV replicon) [nM] |
| --- | --- | --- |
| O=C(Cc1ccccc1)N1CCC[C@H]1c1nc(-c2cccc(Oc3ccc(-c4cnc([C@@H]5CCCN5C(=O)Cc5ccccc5)[nH]4)cc3)c2)c[nH]1 [Example 9, 2-phenyl-1-((S)-2-(5-(4-(3-(2-((S)-1-(2-phenylacetyl)pyrrolidin-2-yl)-1H-imidazol-4-yl)phenoxy)phenyl)-1H-imidazol-2-yl)pyrrolidin-1-yl)ethanone] | > 31.5 | 77 |
| O=C(C(O)c1ccccc1)N1CCC[C@H]1c1nc(-c2cccc(Oc3ccc(-c4cnc([C@@H]5CCCN5C(=O)C(O)c5ccccc5)[nH]4)cc3)c2)c[nH]1 (stereo partly drawn) [Example 10, 2-hydroxy-1-((2S)-2-(5-(4-(3-(2-((2S)-1-(2-hydroxy-2-phenylacetyl)-pyrrolidin-2-yl)-1H-imidazol-4-yl)phenoxy)phenyl)-1H-imidazol-2-yl)pyrrolidin-1-yl)-2-phenylethanone] | 4.86 | < 0.5 |
| Cc1cccc(CC(=O)N2CCC[C@H]2c2nc(-c3cccc(Oc4ccc(-c5cnc([C@@H]6CCCN6C(=O)Cc6cccc(C)c6)[nH]5)cc4)c3)c[nH]2)c1 [Example 11, 2-m-tolyl-1-((2S)-2-(5-(4-(3-(2-((S)-1-(2-m-tolylacetyl)pyrrolidin-2-yl)-1H-imidazol-4-yl)phenoxy)phenyl)-1H-imidazol-2-yl)pyrrolidin-1-yl)ethanone] | > 31.5 | 6180 |
| O=C(Cc1cccnc1)N1CCC[C@H]1c1nc(-c2cccc(Oc3ccc(-c4cnc([C@@H]5CCCN5C(=O)Cc5cccnc5)[nH]4)cc3)c2)c[nH]1 [Example 18] | > 31.5 | 54.3 |
| O=C(Cc1ccc2c(c1)OCO2)N1CCC[C@H]1c1nc(-c2cccc(Oc3ccc(-c4cnc([C@@H]5CCCN5C(=O)Cc5ccc6c(c5)OCO6)[nH]4)cc3)c2)c[nH]1 [Example 19] | > 31.5 | 1070 |
| O=C(C(=O)N1CCC[C@H]1c1nc(-c2cccc(Oc3ccc(-c4cnc([C@@H]5CCCN5C(=O)C(=O)c5ccccc5)[nH]4)cc3)c2)c[nH]1)c1ccccc1 [Example 20] | > 31.5 | 58.2 |
| O=C(CCS(=O)(=O)c1ccccc1)N1CCC[C@H]1c1nc(-c2cccc(Oc3ccc(-c4cnc([C@@H]5CCCN5C(=O)CCS(=O)(=O)c5ccccc5)[nH]4)cc3)c2)c[nH]1 [Example 21] | > 31.5 | 3700 |
| O=C([C@H]1CCCO1)N1CCC[C@H]1c1nc(-c2cccc(Oc3ccc(-c4cnc([C@@H]5CCCN5C(=O)[C@H]5CCCO5)[nH]4)cc3)c2)c[nH]1 [Example 22] | > 31.5 | 1090 |
| O=C([C@@H](O)c1ccccc1)N1CCC[C@H]1c1nc(-c2cccc(Oc3ccc(-c4cnc([C@@H]5CCCN5C(=O)[C@@H](O)c5ccccc5)[nH]4)cc3)c2)c[nH]1 [Example 23] | 3.66 | 60.8 |
| O=C(Cc1ccccc1OC(F)(F)F)N1CCC[C@H]1c1nc(-c2cccc(Oc3ccc(-c4cnc([C@@H]5CCCN5C(=O)Cc5ccccc5OC(F)(F)F)[nH]4)cc3)c2)c[nH]1 [Example 24] | > 31.5 | 14.4 |
| COc1c(F)cc(CC(=O)N2CCC[C@H]2c2nc(-c3cccc(Oc4ccc(-c5cnc([C@@H]6CCCN6C(=O)Cc6cc(F)c(OC)c(F)c6)[nH]5)cc4)c3)c[nH]2)cc1F [Example 25] | > 31.5 | 3390 |
| O=C(CCc1ccccc1F)N1CCC[C@H]1c1nc(-c2cccc(Oc3ccc(-c4cnc([C@@H]5CCCN5C(=O)CCc5ccccc5F)[nH]4)cc3)c2)c[nH]1 [Example 26] | > 31.5 | 2310 |
| COc1cccc(CCC(=O)N2CCC[C@H]2c2nc(-c3cccc(Oc4ccc(-c5cnc([C@@H]6CCCN6C(=O)CCc6cccc(OC)c6)[nH]5)cc4)c3)c[nH]2)c1 [Example 27] | > 31.5 | 3530 |
| O=C(CC1CCCCC1)N1CCC[C@H]1c1nc(-c2cccc(Oc3ccc(-c4cnc([C@@H]5CCCN5C(=O)CC5CCCCC5)[nH]4)cc3)c2)c[nH]1 [Example 28] | > 31.5 | 5470 |
| O=C(CCc1cccnc1)N1CCC[C@H]1c1nc(-c2cccc(Oc3ccc(-c4cnc([C@@H]5CCCN5C(=O)CCc5cccnc5)[nH]4)cc3)c2)c[nH]1 [Example 29] | > 31.5 | 3.98 |
| CN(C)C(C(=O)N1CCC[C@H]1c1nc(-c2cccc(Oc3ccc(-c4cnc([C@@H]5CCCN5C(=O)C(c5ccc(Cl)cc5)N(C)C)[nH]4)cc3)c2)c[nH]1)c1ccc(Cl)cc1 (stereo partly shown) [Example 30] | 4.6 | 3.62 |

| Compound | CC50 (Cytotoxicity (Huh-7)) [µM] | EC50 (HCV replicon) [nM] |
| --- | --- | --- |
| CC(C)[C@@H](C(=O)N1CCC[C@H]1c1nc(-c2cccc(Oc3ccc(-c4cnc([C@@H]5CCCN5C(=O)[C@H](C(C)C)N(C)C)[nH]4)cc3)c2)c[nH]1)N(C)C [Example 31] | 2.87 | 1160 |
| O=C(c1ccoc1)N1CCC[C@H]1c1nc(-c2cccc(Oc3ccc(-c4cnc([C@@H]5CCCN5C(=O)c5ccoc5)[nH]4)cc3)c2)c[nH]1 [Example 32] | > 31.5 | 978 |
| Cc1nc(C(=O)N2CCC[C@H]2c2nc(-c3cccc(Oc4ccc(-c5cnc([C@@H]6CCCN6C(=O)c6nc(C)oc6C)[nH]5)cc4)c3)c[nH]2)c(C)o1 [Example 33] | > 31.5 | 864 |
| O=C(c1ccc(F)cc1)N1CCC[C@H]1c1nc(-c2cccc(Oc3ccc(-c4cnc([C@@H]5CCCN5C(=O)c5ccc(F)cc5)[nH]4)cc3)c2)c[nH]1 [Example 34] | > 31.5 | 4340 |
| O=C(C(c1ccccc1)n1ccnc1)N1CCC[C@H]1c1nc(-c2cccc(Oc3ccc(-c4cnc([C@@H]5CCCN5C(=O)C(c5ccccc5)n5ccnc5)[nH]4)cc3)c2)c[nH]1 (stereo partly shown) [Example 35] | > 31.5 | 4.72 |
| CC(C)C[C@@H](C(=O)N1CCC[C@H]1c1nc(-c2cccc(Oc3ccc(-c4cnc([C@@H]5CCCN5C(=O)[C@H](CC(C)C)N(C)C)[nH]4)cc3)c2)c[nH]1)N(C)C [Example 36] | 7.76 | 3030 |
| O=C(c1ccccn1)N1CCC[C@H]1c1nc(-c2cccc(Oc3ccc(-c4cnc([C@@H]5CCCN5C(=O)c5ccccn5)[nH]4)cc3)c2)c[nH]1 [Example 37] | > 31.5 | 15400 |
| O=C(c1cccnc1)N1CCC[C@H]1c1nc(-c2cccc(Oc3ccc(-c4cnc([C@@H]5CCCN5C(=O)c5cccnc5)[nH]4)cc3)c2)c[nH]1 [Example 38] | > 31.5 | 1270 |
| COC(=O)N[C@H](C(=O)N1CCC[C@H]1c1ncc(-c2ccc(Oc3cccc(-c4cnc([C@@H]5CCCN5C(=O)[C@@H](NC(=O)OC)[C@@H](C)OC)[nH]4)c3)cc2)[nH]1)[C@@H](C)OC [Example 39] | > 31.5 | 0.0794 |
| COC(=O)N[C@H](C(=O)N1CCC[C@H]1c1ncc(-c2ccc(Oc3cccc(-c4cnc([C@@H]5CCCN5C(=O)[C@@H](NC(=O)OC)C(C)(C)C)[nH]4)c3)cc2)[nH]1)C(C)(C)C [Example 40] | 12.6 | 0.165 |
| CN(C)CCC(=O)N1CCC[C@H]1c1nc(-c2cccc(Oc3ccc(-c4cnc([C@@H]5CCCN5C(=O)CCN(C)C)[nH]4)cc3)c2)c[nH]1 [Example 41] | > 31.5 | 1240 |
| COC(=O)N[C@H](C(=O)N1CCC[C@H]1c1nc(-c2cccc(Oc3ccc(-c4cnc([C@@H]5CCCN5C(=O)[C@@H](NC(=O)OC)C(C)C)[nH]4)cc3)c2)c[nH]1)C(C)C [Example 42] | 18.6 | 0.0433 |
| CN(C)[C@@H](C(=O)N1CCC[C@H]1c1ncc(-c2ccc(Oc3cccc(-c4cnc([C@@H]5CCCN5C(=O)[C@@H](c5ccccc5)N(C)C)[nH]4)c3)cc2)[nH]1)c1ccccc1 [Example 43] | 0.7 | 0.114 |
| CCN(CC)[C@@H](C(=O)N1CCC[C@H]1c1nc(-c2cccc(Oc3ccc(-c4cnc([C@@H]5CCCN5C(=O)[C@@H](c5ccccc5)N(CC)CC)[nH]4)cc3)c2)c[nH]1)c1ccccc1 [Example 44] | 0.78 | 0.12 |
| COc1ccc(Oc2ccc(-c3c[nH]c([C@@H]4CCCN4C(=O)[C@@H](c4ccccc4)N(C)C)n3)cc2)cc1-c1c[nH]c([C@@H]2CCCN2C(=O)[C@@H](c2ccccc2)N(C)C)n1 [Example 47] | – | 0.705 |
